Paper PMC9240639, “Williams-Beuren Syndrome Related Methyltransferase WBSCR27: From Structure to Possible Function” (Frontiers in Molecular Biosciences, 2022)

Biological target: T1, WBSCR27 (Mus musculus, UniProt Q8BGM4)
T1 construct: gene Mettl27; recombinant in E. coli, Ni-NTA, His-tag cleaved; isotope-labelled for NMR
T1 sequence (Q8BGM4 1-238): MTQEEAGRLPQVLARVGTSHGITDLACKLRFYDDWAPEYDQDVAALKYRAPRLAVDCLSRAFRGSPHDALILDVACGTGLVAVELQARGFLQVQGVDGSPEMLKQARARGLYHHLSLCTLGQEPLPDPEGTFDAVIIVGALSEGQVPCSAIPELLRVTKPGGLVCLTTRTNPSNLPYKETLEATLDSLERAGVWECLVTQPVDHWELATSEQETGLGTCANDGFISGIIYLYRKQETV
Assay: […],1H HSQC NMR of epimer mixture with protein
Format: binding
Settings: 308 K, labelled compound (methyl 13C), 0.05 mM each

C[S+](CC[C@H](N)C(=O)O)C[C@H]1O[C@@H](n2cnc3c(N)ncnc32)[C@H](O)[C@@H]1O (mixture of isomers) [(R,S)-SAM]
13C,1H HSQC NMR of epimer mixture with protein (equimolar mixture with (S,S)-SAM, seen bound only at the higher protein ratio): This indicates a significantly lower affinity of the (R,S)-epimer compared with the (S,S)-epimer

C[S+](CC[C@H](N)C(=O)O)C[C@H]1O[C@@H](n2cnc3c(N)ncnc32)[C@H](O)[C@@H]1O (stereo partly drawn) [(S,S)-SAM]
13C,1H HSQC NMR of epimer mixture with protein (equimolar mixture with (R,S)-SAM): WBSCR27 preferably binds the (S,S) stereoisomer
